One compound from US11964974B1, “Imidazo[1,2-c]pyrido[3,4-e]pyrimidine-3-carboxylic acids as CK2 inhibitors” (KING FAISAL UNIVERSITY, priority 2024, dated 2024) can be followed below.

Structures are written as SMILES.

The IC50 is the midpoint of a concentration-inhibition curve.

One test relates to HL60 (leukemia). As to the kind of experiment: In vitro cytotoxic activity assay (MTT), HL60. It counts as cell-based. To be noted: Homo sapiens, HL-60; HL60 (leukemia) cells, exposed for 96 hours; read-out: Cytotoxicity activity IC50. As for the experimental part: (§1) Compounds 1-16 were screened for their in vitro cytotoxic activity utilizing a 3-(4,5-dimethyl-thiazol-2-yl)-2,5-diphenyltetrazolium bromide (MTT) assay against selected cancer human cell lines consisting of PC3 (prostate), HCT116 (colon), A375 (melanoma), H1299 (lung), MIAPaCa-2 (pancreas), HL60 (leukemia), MCF7 (breast), MDA-MB-231 (breast) (T. Mosmann, J. Immunol. Meth., 1983, 65, 55-63). The cells were cultured at 37° C. in RMPI1640 medium supplemented with 10% fetal bovine serum, 50 IU/mL penicillin, and 50 μg/mL streptomycin in a 5% CO2 incubator. All cells were sub-cultured 3 times/week by trypsinisation. Viable cells were seeded and allowed to adhere for 12 hours before a test drug was added in 96-well plates at an initial density of 1.0×10^5 cells/mL. Tumor cell lines were separately exposed to various concentrations of the tested compounds followed by incubation at a temperature of 37° C. during 96 hours inside a medium of fresh RMPI 1640. Cells were subsequently incubated at 37° C. using MTT at 0.5 mg/mL during 4 hours. After removal of supernatant, formazan crystals were dissolved in isopropanol and the optical density was measured at 570 nm. CX-4945 was used as a positive control.

A further test has as its system MIAPaCa-2 (pancreas). Put plainly: In vitro cytotoxic activity assay (MTT), MIAPaCa-2. It counts as cell-based. Conditions: Homo sapiens, MIA PaCa-2; MIAPaCa-2 (pancreas) cells, exposed for 96 hours; read-out: Cytotoxicity activity IC50. As for the experimental part:
as §1

Test [1] has as its target T1, recombinant human CK2 (RRββ-holoenzyme) (Homo sapiens, UniProt P68400).
T1 construct: purchased Millipore
As to the kind of experiment: CK2 Kinase Assay (radiometric, [γ-33P]ATP). It counts as biochemical. Conditions: final ATP concentration 15 μM, 10 min at 30° C.; read-out: protein kinase CK2 inhibition IC50. As for the experimental part: CK2 Kinase Assay was conducted using the protocol as described in Pierre F. et al; J. Med. Chem. 2011, 54, 635-654. The tested compounds in aqueous solution were added at a volume of 10 μL to a reaction mixture comprising 10 μL of assay dilution buffer (ADB; 20 mM MOPS, pH 7.2, 25 mM β-glycerol phosphate, 5 mM EGTA, 1 mM sodium orthovanadate, and 1 mM dithiothreitol), 10 μL of substrate peptide (RRRDDDSDDD, dissolved in ADB at a concentration of 1 mM), 10 μL of recombinant human CK2 (RRββ-holoenzyme, 25 ng dissolved in ADB; Millipore). Reactions were initiated by the addition of 10 μL of ATP solution (90% 75 mMMgCl2, 75 μM ATP (final ATP concentration: 15 μM) dissolved in ADB; 10% [γ-33P] ATP (stock 1 mCi/100 μL; 3000 Ci/mmol (Perkin-Elmer) and maintained for 10 min at 30° C. The reactions were quenched with 100 μL of 0.75% phosphoric acid and then transferred to and filtered through a phosphor cellulose filter plate (Millipore). After washing each well five times with 0.75% phosphoric acid, the plate was dried under vacuum for 5 min and, following the addition of 15 μL of scintillation fluid to each well, the residual radioactivity was measured using a Wallac luminescence counter. The IC50 values were derived from eight concentrations of test inhibitors.

The test system of a further test is H1299 (lung). As to the kind of experiment: In vitro cytotoxic activity assay (MTT), H1299. To be noted: Homo sapiens, NCI-H1299; H1299 (lung) cells, exposed for 96 hours; read-out: Cytotoxicity activity IC50. It is filed as cell-based. The protocol:
as §1

The next test deals with HCT116 (colon). Put plainly: In vitro cytotoxic activity assay (MTT), HCT116. Conditions: Homo sapiens, HCT-116; HCT116 (colon) cells, exposed for 96 hours; read-out: Cytotoxicity activity IC50. It counts as cell-based. As for the experimental part:
as §1

For the next test, the system named is MCF7 (breast). As to the kind of experiment: In vitro cytotoxic activity assay (MTT), MCF7. It counts as cell-based. To be noted: Homo sapiens; MCF7 (breast) cells, exposed for 96 hours; read-out: Cytotoxicity activity IC50. As for the experimental part:
as §1

A further test concerns MDA-MB-231 (breast). Put plainly: In vitro cytotoxic activity assay (MTT), MDA-MB-231. It counts as cell-based. To be noted: Homo sapiens; MDA-MB-231 (breast) cells, exposed for 96 hours; read-out: Cytotoxicity activity IC50. The protocol:
as §1

Another test has as its system PC3 (prostate). Put plainly: In vitro cytotoxic activity assay (MTT), PC3. To be noted: Homo sapiens, Prostate cell; PC3 (prostate) cells, exposed for 96 hours; read-out: Cytotoxicity activity IC50. It counts as cell-based. As for the experimental part: as §1
The test system of another test is A375 (melanoma). Put plainly: In vitro cytotoxic activity assay (MTT), A375. It counts as cell-based. Conditions: Homo sapiens, A-375; A375 (melanoma) cells, exposed for 96 hours; read-out: Cytotoxicity activity IC50. The protocol:
as §1

T1 sequence (P68400 whole entry): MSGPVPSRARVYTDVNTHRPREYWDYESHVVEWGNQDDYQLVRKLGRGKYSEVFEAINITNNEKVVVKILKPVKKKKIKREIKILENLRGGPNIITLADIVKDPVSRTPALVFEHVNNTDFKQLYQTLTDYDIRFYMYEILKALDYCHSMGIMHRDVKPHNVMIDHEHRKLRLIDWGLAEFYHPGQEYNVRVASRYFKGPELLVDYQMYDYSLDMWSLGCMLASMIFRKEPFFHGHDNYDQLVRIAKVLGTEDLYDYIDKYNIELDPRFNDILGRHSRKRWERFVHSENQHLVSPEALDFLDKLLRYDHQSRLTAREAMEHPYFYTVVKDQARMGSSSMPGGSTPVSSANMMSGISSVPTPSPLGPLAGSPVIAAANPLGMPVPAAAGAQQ
T1 sequence (P67870 whole entry partner): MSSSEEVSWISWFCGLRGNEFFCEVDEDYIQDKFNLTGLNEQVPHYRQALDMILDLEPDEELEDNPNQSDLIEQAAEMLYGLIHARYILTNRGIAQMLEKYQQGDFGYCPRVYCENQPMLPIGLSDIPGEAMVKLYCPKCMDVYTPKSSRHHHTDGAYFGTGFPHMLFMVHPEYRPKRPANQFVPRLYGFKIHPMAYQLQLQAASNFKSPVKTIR

In the case of `O=C(O)c1cnc2c3cnccc3nc(Nc3cccc(Cl)c3)n12` [Compound 1, 5-((3-chlorophenyl)amino)imidazo[1,2-c]pyrido[3,4-e]pyrimidine-3-carboxylic acid], the IC50 stood at 6.7 µM in the test with HL60 (leukemia); 1.6 µM in the test with MIAPaCa-2 (pancreas); 0.035 µM in [1]; 2.9 µM in the test with H1299 (lung); 3.2 µM in the test with HCT116 (colon); 5.3 µM in the test on MCF7 (breast). Besides, the IC50 in the test on MDA-MB-231 (breast) was 4.9 µM; in the test with PC3 (prostate), 1.8 µM; in the test with A375 (melanoma) it was 5.6 µM.
